Experimental data taken from the supplement of paper PMC10331698.
± gives the standard deviation of the averaged measurements.

What was measured:
Assay in all cases: LOEC (log10 uM (lowest observed effect concentration))
[1] = compound: O=C(O)C(F)(OC(F)(F)C(F)(F)C(F)(F)F)C(F)(F)F [Ammonium perfluoro-2-methyl-3-oxahexanoate]
Method: (§1)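 BioMAP Diversity Plus panel in human primary cell co-cultures, 4 concentrations in duplicate blinded samples. Responses are log10 fold change versus DMSO control, processed with tcpl v2.1.0. A hit is called when responses at any concentration exceed the cutoff (the larger of 3*bmad or log10(1.2)); the lowest observed effect concentration (modl_ga, log10 uM) is reported for hits.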

[2] = compound: CCNS(=O)(=O)C(F)(F)C(F)(F)C(F)(F)C(F)(F)C(F)(F)C(F)(F)C(F)(F)C(F)(F)F [N-Ethylperfluorooctanesulfonamide]
Method: as §1

[3] = compound: NS(=O)(=O)C(F)(F)C(F)(F)C(F)(F)C(F)(F)C(F)(F)C(F)(F)C(F)(F)C(F)(F)F [Perfluorooctanesulfonamide]
Method: as §1

[4] = compound: O=C(O)C(F)(F)C(F)(F)C(F)(F)C(F)(F)C(F)(F)C(F)(F)C(F)(F)C(F)(F)F [Perfluorononanoic acid]
Method: as §1

[5] = compound: O=C(O)C(F)(F)OC(F)(F)C(F)(F)OC(F)(F)C(F)(F)OC(F)(F)C(F)(F)C(F)(F)C(F)(F)F [Perfluoro-3,6,9-trioxatridecanoic acid]
Method: as §1

[6] = compound: O=C(O)C=C(C(F)(F)F)C(F)(F)F [3,3-Bis(trifluoromethyl)-2-propenoic acid]
Method: as §1

[7] = compound: O=C(O)C(F)(F)C(F)(F)C(F)(F)C(F)(F)C(F)(F)C(F)(F)C(F)(F)C(F)(F)C(F)(F)C(F)(F)F [Perfluoroundecanoic acid]
Method: as §1

[8] = compound: O=S(=O)(O)CCC(F)(F)C(F)(F)C(F)(F)C(F)(F)C(F)(F)C(F)(F)C(F)(F)C(F)(F)F [8:2 Fluorotelomer sulfonic acid]
Method: as §1

[9] = compound: OCC(F)(F)OC(F)(F)C(F)(F)OC(F)(F)C(F)(F)OC(F)(F)CO [1H,1H,11H,11H-Perfluorotetraethylene glycol]
Method: as §1

[10] = compound: C[C@@H]1C[C@H]2[C@@H]3CCC4=CC(=O)C=C[C@]4(C)[C@@]3(F)[C@@H](O)C[C@]2(C)[C@@]1(O)C(=O)COP(=O)(O)O [Dexamethasone sodium phosphate]
Method: as §1

[11] = compound: O=S(=O)(O)C(F)(F)C(F)(F)C(F)(F)C(F)(F)C(F)(F)C(F)(F)C(F)(F)F [Perfluoroheptanesulfonic acid]
Method: as §1

[12] = compound: OCCC(F)(F)C(F)(F)C(F)(F)C(F)(F)F [4:2 Fluorotelomer alcohol]
Method: as §1

[13] = compound: O=C(O)CCC(F)(C(F)(F)F)C(F)(F)F [4,4-bis(Trifluoromethyl)-4-fluoropropanoic acid]
Method: as §1

[14] = compound: O=S(=O)(O)C(F)(F)C(F)(F)OC(F)(F)C(F)(F)F [Perfluoro(2-ethoxyethane)sulfonic acid]
Method: as §1

[15] = compound: OCC(F)(F)C(F)(F)C(F)(F)C(F)(F)C(F)(F)C(F)(F)CO [1H,1H,8H,8H-Perfluorooctane-1,8-diol]
Method: as §1

Test System | LOEC (log10 uM) [2] | LOEC (log10 uM) [3] | LOEC (log10 uM) [4] | LOEC (log10 uM) [5] | LOEC (log10 uM) [6] | LOEC (log10 uM) [7] | LOEC (log10 uM) [8] | LOEC (log10 uM) [10] | further results
3C IL8 up | – | – | – | – | – | – | – | – | LOEC (log10 uM) [1]: 1.78
4H Eotaxin3 down | 1.54 ± 0.34 | 1.78 | 1.78 | 1.78 | 1.78 | – | – | – | LOEC (log10 uM) [1]: 1.04 ± 1
BE3C HLADR down | 1.3 | 0.845 | 1.31 ± 0.66 | 0.845 | – | 0.573 ± 0.39 | 1.3 | – | LOEC (log10 uM) [9]: 1.78
BE3C IL8 down | 1.3 | 0.845 | 1.3 | 0.845 | – | 0.845 | 1.78 | 0.239 ± 0.34 | –
BE3C IP10 down | 1.07 ± 0.32 | 0.845 | 1.3 | 0.845 | – | 0.301 | 1.3 | – | LOEC (log10 uM) [9]: 1.78
BE3C MMP1 down | – | – | 1.78 | 0.845 | – | 0.845 | – | 0.477 ± 0.68 | –
BE3C MMP1 up | 1.3 | – | – | – | – | – | 1.3 | – | LOEC (log10 uM) [1]: 1.78; LOEC (log10 uM) [11]: 1.48
BE3C tPA down | 1.3 | 1.78 | 1.3 | 0.845 | 0.801 ± 0.71 | 0.845 | – | 0.239 ± 0.34 | –
BF4T Eotaxin3 down | 0.845 | 1.3 | 1.3 | 0.845 | – | 0.301 | 1.54 ± 0.34 | – | –
BF4T IL8 up | – | – | – | – | – | – | – | – | LOEC (log10 uM) [11]: 1.48
BF4T tPA down | 1.3 | 1.78 | 1.54 ± 0.34 | 0.845 | 1.07 ± 0.32 | 0.845 | – | – | LOEC (log10 uM) [9]: 1.54 ± 0.34
BT PBMCCytotoxicity down | – | – | – | – | – | – | – | 0 | –
BT xIL2 down | – | – | – | – | 0.845 | – | – | 0 | –
BT xIL6 down | – | 1.78 | – | 1.78 | – | – | – | 0.716 ± 0.34 | LOEC (log10 uM) [9]: 1.78
BT xTNFa up | – | – | – | – | – | – | – | – | LOEC (log10 uM) [12]: 1.31 ± 0.66
CASM3C IL6 down | – | – | – | – | 1.07 ± 0.32 | – | – | 0.239 ± 0.34 | –
CASM3C MCP1 down | – | – | – | – | – | – | – | 0.477 ± 0.68 | –
CASM3C SAA up | – | – | – | – | – | – | – | – | LOEC (log10 uM) [13]: 1.54 ± 0.34; LOEC (log10 uM) [14]: 1.54 ± 0.34
CASM3C Thrombomodulin up | 1.78 | 1.78 | – | – | – | – | – | – | LOEC (log10 uM) [1]: 0.845
CASM3C VCAM1 down | 1.54 ± 0.34 | 1.78 | – | 1.78 | 0.573 ± 0.39 | – | – | – | LOEC (log10 uM) [1]: 1.31 ± 0.66
IMphg CD40 down | 1.78 | 1.3 | 1.78 | 1.78 | – | – | 1.78 | – | –

Test System | LOEC (log10 uM) [2] | LOEC (log10 uM) [3] | LOEC (log10 uM) [4] | LOEC (log10 uM) [5] | LOEC (log10 uM) [6] | LOEC (log10 uM) [7] | LOEC (log10 uM) [8] | LOEC (log10 uM) [10] | further results
IMphg CD69 down | 1.78 | – | 1.78 | 1.31 ± 0.66 | – | – | 1.78 | – | –
IMphg ESelectin down | 1.54 ± 0.34 | 0.573 ± 0.39 | – | 1.3 | 1.78 | – | – | 0 | –
IMphg ESelectin up | – | – | – | – | – | – | 1.78 | – | –
IMphg IL8 down | – | – | – | – | – | – | – | 0.239 ± 0.34 | –
IMphg IL8 up | 1.78 | – | 1.07 ± 0.32 | – | 1.3 | – | – | – | LOEC (log10 uM) [1]: 0.573 ± 0.39
IMphg IL10 down | – | 1.54 ± 0.34 | 1.78 | 1.78 | 0.845 | – | 1.3 | 0 | LOEC (log10 uM) [1]: 0.301; LOEC (log10 uM) [11]: 1.48; LOEC (log10 uM) [14]: 1.78; LOEC (log10 uM) [15]: 1.31 ± 0.66; LOEC (log10 uM) [9]: 1.78
IMphg MCP1 down | 1.78 | 1.54 ± 0.34 | – | 1.3 | – | – | – | 0.477 | –
IMphg MIP1a down | – | – | – | 1.54 ± 0.34 | – | – | – | 0 | –
IMphg VCAM1 down | 1.78 | 1.78 | 1.78 | 1.78 | 1.78 | – | – | 1.48 | –
KF3CT IL1a down | 1.78 | 1.78 | 0.801 ± 0.71 | 1.3 | – | 0.845 | 1.3 | – | –
LPS IL1a down | – | 1.78 | 1.78 | 1.78 | – | -0.427 ± 0.39 | 1.78 | – | –
LPS IL8 up | – | – | – | – | – | – | – | – | LOEC (log10 uM) [1]: 1.54 ± 0.34; LOEC (log10 uM) [14]: 1.54 ± 0.34
LPS PGE2 down | – | – | 1.54 ± 0.34 | 1.78 | – | – | 1.78 | 1.22 ± 0.37 | –
LPS TNFa down | – | 1.78 | – | 1.78 | – | 0.845 | – | 0.954 | –
LPS Thrombomodulin up | 1.78 | – | – | 1.78 | – | – | 1.54 ± 0.34 | – | LOEC (log10 uM) [9]: 1.04 ± 1
SAg Eselectin down | 1.78 | 1.78 | – | 1.78 | 1.3 | – | – | 0.716 ± 0.34 | LOEC (log10 uM) [9]: 1.78
SAg IL8 down | 1.78 | 1.78 | 1.78 | 1.3 | 1.78 | – | – | – | LOEC (log10 uM) [9]: 1.78
hDFCGF MMP1 down | 1.78 | 1.3 | – | 0.845 | – | 0.845 | – | 0.954 | –
hDFCGF Proliferation down | 1.3 | 1.3 | 1.54 ± 0.34 | 0.845 | 1.78 | 0.301 | – | – | LOEC (log10 uM) [9]: 1.04 ± 1
hDFCGF VCAM1 down | 0.301 | 1.07 ± 0.32 | – | 0.845 | 1.78 | 0.301 | – | – | LOEC (log10 uM) [9]: 1.3
